The values below are quoted from earlier work in paper PMC6544043 (ACS infectious diseases, 2019).

pIC50: −log10 of the molar value.

The data set has as its target adenosine/guanosine preferring nucleoside ribohydrolase (AGNH) (Trichomonas vaginalis, UniProt A2EYV3). The note with it: read-out: inhibitor potency; cited from earlier work.

On to `OC[C@H]1O[C@@H](n2cnc3c(NC4CCCC4)nc(Cl)nc32)[C@H](O)[C@@H]1O` [2-chloro-N(6)-cyclopenty-ladenosine], for which the pIC50 is 5.05.
